From patent US8507219B2, “Method of treating inflammation with statins” (MUSC Foundation for Research Development, priority 1997, dated 2013)

Key:
[1] = system: cultured skin fibroblasts of X-ALD; experiment: VLCFA ratios (C26:0/C22:0, C24:0/C22:0) in X-ALD skin fibroblasts; assay type: cell-based, human
[2] = system: IL-1β production in rat primary microglia; experiment: LPS-induced IL-1β production (ELISA) in rat primary microglia; assay type: cell-based; details: 10 μM forskolin or 20 μM rolipram 15 min, then LPS 1.0 μg/ml, 24 h
Description: (§1) Determination of TNF-α and IL-1β in culture supernatants Cells were stimulated with LPS in serum-free media for 24 h in the presence or absence of forskolin or rolipram, and concentrations of TNF-α and IL-1β were measured in culture supernatants by using high-sensitivity enzyme-linked immunosorbent assay (R&D Systems, USA) according to the manufacturer's instructions.

[3] = system: TNF-α production in rat primary microglia; experiment: LPS-induced TNF-α production (ELISA) in rat primary microglia; assay type: cell-based; details: 10 μM forskolin or 20 μM rolipram 15 min, then LPS 1.0 μg/ml, 24 h
Description: as §1

[4] = system: cultured skin fibroblasts of X-ALD; experiment: β-oxidation of lignoceric acid in cultured skin fibroblasts of X-ALD; assay type: cell-based, human
[5] = inferred from reports in mice and marmoset (Sommer et al., 1995); cited from earlier work
[6] = system: IL-1β production in rat primary astrocytes; experiment: LPS-induced IL-1β production (ELISA) in rat primary astrocytes; assay type: cell-based; details: forskolin 10 μM; 8-Br-cAMP 100 μM; rolipram 20 μM; H-89 2 μM; myristoylated PKI 0.4 μM
Description: as §1

[7] = system: TNF-α production in rat primary astrocytes; experiment: LPS-induced TNF-α production (ELISA) in rat primary astrocytes; assay type: cell-based; details: forskolin 10 μM; 8-Br-cAMP 100 μM; rolipram 20 μM; H-89 2 μM; myristoylated PKI 0.4 μM
Description: as §1

[8] = system: control skin fibroblasts; experiment: VLCFA ratios in control skin fibroblasts; assay type: cell-based, human; details: two weeks forskolin
Description: Measurement of VLCFA in Fibroblasts Fatty acid methyl ester (FAME) was prepared as described previously by Lepage and Roy (1986) with modifications. Fibroblast cells, suspended in HBSS, were disrupted by sonication to form a homogeneous solution. An aliquot (200 μl) of this solution was transferred to a glass tube and […] heptacosanoic (27:0) acid was added as internal standard and lipids were extracted by Folch partition. Fatty acids were transesterified with acetyl chloride (200 μl) in the presence of methanol and benzene (4:1) for 2 h at 100° C. The solution was cooled down to room temperature followed by addition of 5 ml 6% potassium carbonate solution at ice-cooled temperature. Isolation and purification of FAME were carried out as detailed by Dacremont et al. (1995). […]

[9] = system: iNOS activity in rat primary astrocytes; experiment: iNOS activity (arginine to citrulline) in homogenates of treated rat primary astrocytes; assay type: cell-based; details: Rattus norvegicus, Astrocyte, LPS 1 μg/ml, 24 h
Description: NOS activity was measured directly by production of L-[2,3,4,5-^3H]citrulline from L-[2,3,4,5-^3H] arginine (Feinstein et al., 1994a). […] Assays were carried out for 30 to 40 min and the production of L-[2,3,4,5-^3H] citrulline was linear. The reactions were stopped by addition of 800 μl of ice-cold 20 mM HEPES (pH 5.5) followed by addition of 2 ml of Dowex-50W equilibrated in the same buffer. The samples were then centrifuged and the concentration of L-[^3H]citrulline was determined in the supernatant by liquid scintillation counting.
Dose Dependence of Forskolin Inhibition of the LPS Stimulation of iNOS Astrocytes were incubated with different concentrations of forskolin 15 min before the addition of 1 μg/ml LPS, and after 24 h the iNOS activity was measured as nitrite concentrations in the supernatant and conversion of arginine to citrulline in the cellular homogenates (FIG. 1). The level of nitrite and iNOS activity were inhibited to a similar degree at all the concentrations of forskolin tested. […] . […] This may be due to the fact that PKA was already completely activated in extracts of cells incubated with 10 μM forskolin. The PKA activity increased with the increase in forskolin concentration. The reciprocal relationship of production of NO and iNOS activity with PKA activity supports the conclusion that PKA plays a pivotal role in the regulation of iNOS expression in astrocytes.

[10] = system: PKA; experiment: PKA activity (Kemptide phosphorylation) in rat primary astrocytes; assay type: cell-based; details: optimal concentration of forskolin, LPS 1.0 μg/ml, 1 h; taken as 100%
[11] = system: control human skin fibroblasts; experiment: β-oxidation of lignoceric acid in control human skin fibroblasts; assay type: cell-based; details: 72 h; forskolin 4 μM; 1,9 dideoxy forskolin 4 μM; 8-Br-cAMP 50 μM; H-89 1 μM; myristoylated PKI 0.2 μM; Control 565.2 ± 48.3

| SMILES | ratios of C26:0/C22:0 and C24:0/C22:0 / level of VLCFA ([1]; about 15 days of treatment) | Production of IL-1β [2] | Production of TNF-α [3] | Lignoceric acid β-oxidation ([4]; 72 h, forskolin 4 μM, 8-Br-cAMP 50 μM, rolipram 10 μM, H-89 1 μM, myristoylated PKI 0.2 μM) | increase of the oxidation of lignoceric acid ([4]; rolipram, two weeks, X-ALD fibroblasts with mutation or deletion) | crossing of the blood brain barrier [5] | LPS-stimulated production of IL-1β [6] | LPS-stimulated production of TNF-α [7] | days of treatment until the ratios of C26:0/C22:0 and C24:0/C22:0 decreased to the normal level ([1]; X-ALD fibroblasts, forskolin 4 μM, lovastatin 5 μM, combination of lovastatin and NaPA) | ratio of C26:0/C22:0 ([8]; from 0.04) | ratio of C24:0/C22:0 ([8]; from 1.23) | inhibition at 0.1 µM ([9]; forskolin 0.1 μM (lowest dose with significant effect)) | inhibition at 10 µM ([9]; forskolin 10 μM) | PKA activity [10] | Lignoceric acid β-oxidation [11] |
| --- | --- | --- | --- | --- | --- | --- | --- | --- | --- | --- | --- | --- | --- | --- | --- |
| COc1ccc(C2CNC(=O)C2)cc1OC1CCCC1 (centres unmarked) [Rolipram] | normalized the levels of VLCFA in these cell lines | 2.3 ± 0.3 ng/24 h/mg protein | 1.2 ± 0.09 ng/24 h/mg protein | stimulated lignoceric acid β-oxidation | 50 to 65% | does cross the blood brain barrier | inhibited the LPS-stimulated production | inhibited the LPS-stimulated production | – | – | – | – | – | – | – |
| C=C[C@@]1(C)CC(=O)[C@]2(O)[C@@]3(C)[C@@H](O)CCC(C)(C)[C@@H]3[C@H](O)[C@H](OC(C)=O)[C@@]2(C)O1 [forskolin] | – | 1.9 ± 0.2 ng/24 h/mg protein | 0.9 ± 0.1 ng/24 h/mg protein | – | – | – | – | – | 12 to 15 days | 0.029 | 1.12 | 30% | ~90% | 74.4 ± 9.4 pmol/min/mg | 885.3 ± 62.1 pmol/h/mg protein |
